The values that follow come from article PMC12749748, “Chemically-induced degradation of the endoplasmic-reticulum stress sensor IRE1 by a VHL-recruiting chimera” (Nature Communications, 2025).

One may read the EC50 as the concentration that produces a half-maximal response.

For test [1], the target named is T1, IRE1.KR with recombinant CRL2^VHL complex (Homo sapiens, UniProt O75460+P40337).
T1 construct: Recombinant human IRE1.KR (G547-L977) was purified using an established protocol; His6 (with TEV protease cleavage site) (N, cleaved yes); made in house; host or cells: Sf9 (IRE1.KR)
The test can be described thus: In vitro ubiquitination of recombinant IRE1.KR by CRL2^VHL. The format is biochemical. The settings on record: 0.2 µM IRE1, 0.2 µM G6374, UBE2R1, native ubiquitin. As for the experimental part: The protocol for the in vitro ubiquitination experiment was adapted from a previous publication.
The ubiquitination reaction buffer contained 30 mM Tris pH 7.5, 100 mM NaCl, 5 mM MgCl2, 2 mM ATP, and 2 mM DTT. Recombinant proteins and G6374 with high stock concentrations were pre-diluted in binding buffer containing 30 mM Tris, pH 7.5, 100 mM NaCl, 1 mM DTT for the purpose of accurate pipetting.
The 0.2 µM IRE1: 0.2 µM G6374 (or DMSO) complex was pre-incubated for 15 min at room temperature, then incubated with the neddylation reaction mixture containing 0.2 µM VHL:EloB:EloC, 0.2 µM CUL2-RBX1, 0.1 µM NAE1:UBA3, 1 μM UBE2M, 3 μM NEDD8 for another 15 min at room temperature. Meanwhile, the ubiquitination reaction mixture containing 1 μM UBE1, 5 μM UBE2R1 (or UBE2D1, UBE2D2), and 500 μM ubiquitin or methyl-ubiquitin was prepared and pre-incubated for 15 min before incubation with the neddylation reaction mixture containing IRE1:G6374. Samples were taken at each timepoint and quenched in NuPage LDS buffer supplemented with NuPAGE sample reducing agent, then boiled at 95 °C for 10 min. Ubiquitinated products were visualized by IB with the IRE1 antibody.

The next test concerns the target T2, IRE1 E621A, E836A:VHL (Homo sapiens, UniProt O75460+P40337, E621A/E836A).
T2 construct: N2731; host or cells: HEK293T
The test can be described thus: NanoBRET IRE1:VHL interaction, IRE1 E621A, E836A, HEK293T cells. The format is cell-based. As for the experimental part: 8 × 10^5 293T cells per well were seeded in 6-well plates (Costar, #3516) and incubated at 37 °C, 5% CO2 for 6 h. A mixture of 0.2 µg ERN1 (IRE1)-NanoLuc Fusion Vector (Promega, NV1321), 2 µg HaloTag-VHL Fusion Vector (Promega, N2731), 6 µl FuGENE HD Transfection Reagent (Promega, E2311), and 100 µL Opti-MEM I reduced serum medium (Gibco, #31985062) per well was incubated at room temperature for 20 min before adding to cells. For expression of IRE1 mutants, site-directed mutagenesis was performed using the ERN1-NanoLuc Fusion Vector as the DNA template, and the transfection mixture was prepared in the same way as WT IRE1. After 18 h, cells from 6-well plates were trypsinized, resuspended in Opti-MEM I reduced serum medium, and reseeded into 96-well plates (Costar, #3917), with or without the addition of HaloTag NanoBRET 618 Ligand (Promega, G9801). After 18 h of incubation, a titration of G6374 (dilutions made in Opti-MEM I reduced serum medium) was added to the cells. After 2 h of G6374 treatment, NanoBRET Nano-Glo Substrate (Promega, N1571) was added to cells. The 96-well plates were imaged by GloMax Discover Microplate Reader (Promega, GM3000) with the default “BRET: NanoBRET 618” protocol (Donor: 450 BP; Acceptor: 600 LP; Integration: 0.3 s). Data analysis was performed according to the user manual.
Background: Bioluminescence resonance energy transfer reports proximity on the nanometre scale.

The target in a further test is IRE1:VHL (Homo sapiens, UniProt O75460+P40337). The test can be described thus: NanoBRET IRE1:VHL interaction, WT IRE1, HEK293T cells. Also on record: N2731 (HaloTag-VHL); host or cells: HEK293T. Format: cell-based. The protocol: 8 × 10^5 293T cells per well were seeded in 6-well plates (Costar, #3516) and incubated at 37 °C, 5% CO2 for 6 h. A mixture of 0.2 µg ERN1 (IRE1)-NanoLuc Fusion Vector (Promega, NV1321), 2 µg HaloTag-VHL Fusion Vector (Promega, N2731), 6 µl FuGENE HD Transfection Reagent (Promega, E2311), and 100 µL Opti-MEM I reduced serum medium (Gibco, #31985062) per well was incubated at room temperature for 20 min before adding to cells. For expression of IRE1 mutants, site-directed mutagenesis was performed using the ERN1-NanoLuc Fusion Vector as the DNA template, and the transfection mixture was prepared in the same way as WT IRE1. After 18 h, cells from 6-well plates were trypsinized, resuspended in Opti-MEM I reduced serum medium, and reseeded into 96-well plates (Costar, #3917), with or without the addition of HaloTag NanoBRET 618 Ligand (Promega, G9801). […] After 2 h of G6374 treatment, NanoBRET Nano-Glo Substrate (Promega, N1571) was added to cells. The 96-well plates were imaged by GloMax Discover Microplate Reader (Promega, GM3000) with the default “BRET: NanoBRET 618” protocol (Donor: 450 BP; Acceptor: 600 LP; Integration: 0.3 s). Data analysis was performed according to the user manual.
Chain of IRE1:VHL (O75460 19-977): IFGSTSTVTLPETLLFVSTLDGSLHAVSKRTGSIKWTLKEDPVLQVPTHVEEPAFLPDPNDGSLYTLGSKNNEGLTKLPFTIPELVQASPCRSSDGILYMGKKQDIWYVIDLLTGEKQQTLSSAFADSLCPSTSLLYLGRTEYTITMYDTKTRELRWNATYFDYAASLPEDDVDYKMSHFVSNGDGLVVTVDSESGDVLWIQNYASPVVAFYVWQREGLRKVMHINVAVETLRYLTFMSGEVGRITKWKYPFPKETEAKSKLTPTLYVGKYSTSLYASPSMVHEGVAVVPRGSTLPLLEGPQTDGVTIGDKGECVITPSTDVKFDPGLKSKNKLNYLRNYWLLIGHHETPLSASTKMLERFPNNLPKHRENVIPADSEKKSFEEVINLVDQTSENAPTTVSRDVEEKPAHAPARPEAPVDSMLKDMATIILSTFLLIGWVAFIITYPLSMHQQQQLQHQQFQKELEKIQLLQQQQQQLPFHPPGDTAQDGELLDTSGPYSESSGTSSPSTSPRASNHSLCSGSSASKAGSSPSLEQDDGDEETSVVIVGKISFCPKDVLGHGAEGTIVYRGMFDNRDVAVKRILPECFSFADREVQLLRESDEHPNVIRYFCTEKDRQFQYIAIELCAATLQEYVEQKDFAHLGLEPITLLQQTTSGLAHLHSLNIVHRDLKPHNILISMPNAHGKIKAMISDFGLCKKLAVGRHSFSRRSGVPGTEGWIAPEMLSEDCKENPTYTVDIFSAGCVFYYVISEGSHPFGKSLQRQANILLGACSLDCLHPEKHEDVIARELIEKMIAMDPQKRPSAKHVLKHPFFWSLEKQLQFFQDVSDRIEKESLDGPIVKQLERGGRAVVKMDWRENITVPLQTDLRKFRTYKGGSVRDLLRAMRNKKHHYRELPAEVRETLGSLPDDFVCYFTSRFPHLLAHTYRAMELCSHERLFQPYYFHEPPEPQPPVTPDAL
Chain of IRE1:VHL (P40337 whole entry, the tested form may be a part): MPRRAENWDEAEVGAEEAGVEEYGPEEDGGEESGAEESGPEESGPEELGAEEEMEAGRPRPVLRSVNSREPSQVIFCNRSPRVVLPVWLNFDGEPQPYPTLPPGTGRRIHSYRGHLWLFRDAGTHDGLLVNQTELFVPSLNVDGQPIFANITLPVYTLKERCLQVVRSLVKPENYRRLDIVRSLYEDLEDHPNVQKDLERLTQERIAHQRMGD
Chain of IRE1:VHL (Q15369 whole entry partner, the tested form may be a part): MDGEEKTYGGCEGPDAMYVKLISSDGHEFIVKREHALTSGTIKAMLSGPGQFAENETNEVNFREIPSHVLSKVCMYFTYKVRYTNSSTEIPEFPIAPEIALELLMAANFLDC
Chain of IRE1:VHL (Q15370 whole entry partner, the tested form may be a part): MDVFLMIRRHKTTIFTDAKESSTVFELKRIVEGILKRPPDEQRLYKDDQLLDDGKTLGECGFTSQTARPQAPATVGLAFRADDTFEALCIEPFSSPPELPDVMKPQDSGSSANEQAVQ
Chain of IRE1:VHL (Q13617 whole entry partner, the tested form may be a part): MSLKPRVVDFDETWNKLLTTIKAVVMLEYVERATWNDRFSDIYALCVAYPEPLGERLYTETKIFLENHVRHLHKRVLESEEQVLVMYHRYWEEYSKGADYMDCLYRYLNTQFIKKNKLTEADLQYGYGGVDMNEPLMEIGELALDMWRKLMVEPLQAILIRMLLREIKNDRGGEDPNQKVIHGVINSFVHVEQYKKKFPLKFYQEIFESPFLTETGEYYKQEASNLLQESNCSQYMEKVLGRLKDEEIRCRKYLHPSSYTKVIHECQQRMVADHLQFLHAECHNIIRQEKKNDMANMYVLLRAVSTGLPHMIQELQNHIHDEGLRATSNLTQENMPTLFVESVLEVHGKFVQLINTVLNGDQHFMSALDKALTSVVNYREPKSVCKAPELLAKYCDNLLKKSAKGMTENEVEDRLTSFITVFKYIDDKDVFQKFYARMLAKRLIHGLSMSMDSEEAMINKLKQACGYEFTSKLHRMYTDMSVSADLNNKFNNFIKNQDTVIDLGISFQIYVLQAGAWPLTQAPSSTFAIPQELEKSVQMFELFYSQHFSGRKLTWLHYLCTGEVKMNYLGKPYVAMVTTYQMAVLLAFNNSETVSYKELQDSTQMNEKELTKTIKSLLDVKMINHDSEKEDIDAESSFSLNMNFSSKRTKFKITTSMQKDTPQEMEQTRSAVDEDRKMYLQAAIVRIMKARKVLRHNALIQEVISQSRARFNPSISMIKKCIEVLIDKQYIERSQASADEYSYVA
Chain of IRE1:VHL (P62877 whole entry partner, the tested form may be a part): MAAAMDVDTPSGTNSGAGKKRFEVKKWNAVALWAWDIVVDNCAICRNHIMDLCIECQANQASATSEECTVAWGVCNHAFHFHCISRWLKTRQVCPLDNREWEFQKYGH

T2 sequence (P62877 whole entry): as the sequence (P62877 whole entry partner, the tested form may be a part) above
T2 sequence (Q15370 whole entry, further chain): as the sequence (Q15370 whole entry partner, the tested form may be a part) above
T2 sequence (Q15369 whole entry, further chain): as the sequence (Q15369 whole entry partner, the tested form may be a part) above
T2 sequence (Q13617 whole entry, further chain): as the sequence (Q13617 whole entry partner, the tested form may be a part) above
T2 sequence (P40337 whole entry): as the sequence (P40337 whole entry, the tested form may be a part) above
T2 sequence (O75460 19-977 E621A/E836A): as the sequence (O75460 19-977) above, with E603A, E818A counted along it

`Cc1ncsc1-c1ccc(CNC(=O)[C@@H]2C[C@@H](O)CN2C(=O)[C@@H](NC(=O)CCCCN2CCN([C@H]3CC[C@H](Nc4ncc5ccc(=O)n(C(C)C)c5n4)CC3)CC2)C(C)(C)C)cc1` [G6374]: in test [1], the “IRE1.KR polyubiquitination in vitro” value is listed as “clear G6374-dependent IRE1 polyubiquitination”. Further, the 50% effective concentration (EC50) at IRE1 E621A, E836A:VHL turned out to be 50 ± 20 nM; on IRE1:VHL, 110 ± 30 nM. In addition, the “EC50 of IRE1:VHL interaction (NanoBRET ratio)” value on IRE1:VHL (WT IRE1, HEK293T, estimated) is recorded as 110 nM.
